In BindingDB's records for doi:10.1021/jm061152t (Abbott Laboratories, 2007):
Values joined by “and” are separate entries in the source; they are usually repeats but may differ in a detail not shown here. Equal entries are not always repeated.

Tests used:
[1] = The binding affinities (Ki) of compounds were determined using fluorescence polarization assays (FPA) that measure their ability to competitively displace a Bad-derived peptide from Bcl-xL. IC50 values were binding affinities measured in the presence of 10% human serum. Compound efficacy (EC50) in a cellular co; details: pH 7.4
[2] = The binding affinities (Ki) of compounds were determined using fluorescence polarization assays (FPA) that measure their ability to competitively displace a Bad-derived peptide from Bcl-xL. Compound efficacy (EC50) in a cellular context was evaluated by testing their ability to reverse the protection from cytokine w

Row | Structure (SMILES) | EC50 [1] | EC50 [2] | EC50 ([2]; pH 7.4)
1 | COC1(Cc2ccccc2)CCN(c2ccc(C(=O)NS(=O)(=O)c3ccc(N[C@H](CCN(C)C)CSc4ccccc4)c([N+](=O)[O-])c3)cc2)CC1 [4-(4-benzyl-4-methoxypiperidin-1-yl)-N-[(4-{[(2R)-4-(dimethylamino)-1-(phenylsulfanyl)butan-2-yl]amino}-3-nitrobenzene)sulfonyl]benzamide] | 680 nM | 930 nM | –
2 | COC1(CC2CCCCC2)CCN(c2ccc(C(=O)NS(=O)(=O)c3ccc(N[C@H](CCN(C)C)CSc4ccccc4)c([N+](=O)[O-])c3)cc2)CC1 [4-[4-(cyclohexylmethyl)-4-methoxypiperidin-1-yl]-N-[(4-{[(2R)-4-(dimethylamino)-1-(phenylsulfanyl)butan-2-yl]amino}-3-nitrobenzene)sulfonyl]benzamide] | 320 nM | 200 nM | –
3 | COC1(Cc2ccccc2Br)CCN(c2ccc(C(=O)NS(=O)(=O)c3ccc(N[C@H](CCN(C)C)CSc4ccccc4)c([N+](=O)[O-])c3)cc2)CC1 [4-{4-[(2-bromophenyl)methyl]-4-methoxypiperidin-1-yl}-N-[(4-{[(2R)-4-(dimethylamino)-1-(phenylsulfanyl)butan-2-yl]amino}-3-nitrobenzene)sulfonyl]benzamide] | 100 nM | 200 nM | –
4 | COC1(Cc2ccccc2Cl)CCN(c2ccc(C(=O)NS(=O)(=O)c3ccc(N[C@H](CCN(C)C)CSc4ccccc4)c([N+](=O)[O-])c3)cc2)CC1 [4-{4-[(2-chlorophenyl)methyl]-4-methoxypiperidin-1-yl}-N-[(4-{[(2R)-4-(dimethylamino)-1-(phenylsulfanyl)butan-2-yl]amino}-3-nitrobenzene)sulfonyl]benzamide] | 230 nM | 180 nM | –
5 | CN(C)CC[C@H](CSc1ccccc1)Nc1ccc(S(=O)(=O)NC(=O)c2ccc(N3CCC(=Cc4ccccc4Cl)CC3)cc2)cc1[N+](=O)[O-] [4-{4-[(2-chlorophenyl)methylidene]piperidin-1-yl}-N-[(4-{[(2R)-4-(dimethylamino)-1-(phenylsulfanyl)butan-2-yl]amino}-3-nitrobenzene)sulfonyl]benzamide] | 350 nM | 450 nM | –
6 | CN(C)CC[C@H](CSc1ccccc1)Nc1ccc(S(=O)(=O)NC(=O)c2ccc(N3CCC(=Cc4ccccc4C#N)CC3)cc2)cc1[N+](=O)[O-] [4-{4-[(2-cyanophenyl)methylidene]piperidin-1-yl}-N-[(4-{[(2R)-4-(dimethylamino)-1-(phenylsulfanyl)butan-2-yl]amino}-3-nitrobenzene)sulfonyl]benzamide] | 1100 nM | 1600 nM | –
7 | COC1(Cc2cccc(Cl)c2)CCN(c2ccc(C(=O)NS(=O)(=O)c3ccc(N[C@H](CCN(C)C)CSc4ccccc4)c([N+](=O)[O-])c3)cc2)CC1 [4-{4-[(3-chlorophenyl)methyl]-4-methoxypiperidin-1-yl}-N-[(4-{[(2R)-4-(dimethylamino)-1-(phenylsulfanyl)butan-2-yl]amino}-3-nitrobenzene)sulfonyl]benzamide] | 250 nM | 300 nM | –
8 | COC1(Cc2ccc(Cl)cc2)CCN(c2ccc(C(=O)NS(=O)(=O)c3ccc(N[C@H](CCN(C)C)CSc4ccccc4)c([N+](=O)[O-])c3)cc2)CC1 [4-{4-[(4-chlorophenyl)methyl]-4-methoxypiperidin-1-yl}-N-[(4-{[(2R)-4-(dimethylamino)-1-(phenylsulfanyl)butan-2-yl]amino}-3-nitrobenzene)sulfonyl]benzamide] | 400 nM | 500 nM | –
9 | CN(C)CC[C@H](CSc1ccccc1)Nc1ccc(S(=O)(=O)NC(=O)c2ccc(N3CCC(=Cc4ccc(Cl)cc4)CC3)cc2)cc1[N+](=O)[O-] [4-{4-[(4-chlorophenyl)methylidene]piperidin-1-yl}-N-[(4-{[(2R)-4-(dimethylamino)-1-(phenylsulfanyl)butan-2-yl]amino}-3-nitrobenzene)sulfonyl]benzamide] | 620 nM | 1180 nM | –
10 | CN(C)CC[C@H](CSc1ccccc1)Nc1ccc(S(=O)(=O)NC(=O)c2ccc(N3CCC(=Cc4ccccc4C(F)(F)F)CC3)cc2)cc1[N+](=O)[O-] [N-[(4-{[(2R)-4-(dimethylamino)-1-(phenylsulfanyl)butan-2-yl]amino}-3-nitrobenzene)sulfonyl]-4-(4-{[2-(trifluoromethyl)phenyl]methylidene}piperidin-1-yl)benzamide] | 150 nM | 210 nM | –
11 | CN(C)CC[C@H](CSc1ccccc1)Nc1ccc(S(=O)(=O)NC(=O)c2ccc(N3CCC(=Cc4ccc(C(F)(F)F)cc4)CC3)cc2)cc1[N+](=O)[O-] [N-[(4-{[(2R)-4-(dimethylamino)-1-(phenylsulfanyl)butan-2-yl]amino}-3-nitrobenzene)sulfonyl]-4-(4-{[4-(trifluoromethyl)phenyl]methylidene}piperidin-1-yl)benzamide] | 2600 nM | 3600 nM | –
12 | COC1(CC(C)(C)C)CCN(c2ccc(C(=O)NS(=O)(=O)c3ccc(N[C@H](CCN(C)C)CSc4ccccc4)c([N+](=O)[O-])c3)cc2)CC1 [N-[(4-{[(2R)-4-(dimethylamino)-1-(phenylsulfanyl)butan-2-yl]amino}-3-nitrobenzene)sulfonyl]-4-[4-(2,2-dimethylpropyl)-4-methoxypiperidin-1-yl]benzamide] | 750 nM | 1000 nM | –
13 | COC1(CC(C)C)CCN(c2ccc(C(=O)NS(=O)(=O)c3ccc(N[C@H](CCN(C)C)CSc4ccccc4)c([N+](=O)[O-])c3)cc2)CC1 [N-[(4-{[(2R)-4-(dimethylamino)-1-(phenylsulfanyl)butan-2-yl]amino}-3-nitrobenzene)sulfonyl]-4-[4-methoxy-4-(2-methylpropyl)piperidin-1-yl]benzamide] | 580 nM | 700 nM | –
14 | COC1(Cc2ccccc2F)CCN(c2ccc(C(=O)NS(=O)(=O)c3ccc(N[C@H](CCN(C)C)CSc4ccccc4)c([N+](=O)[O-])c3)cc2)CC1 [N-[(4-{[(2R)-4-(dimethylamino)-1-(phenylsulfanyl)butan-2-yl]amino}-3-nitrobenzene)sulfonyl]-4-{4-[(2-fluorophenyl)methyl]-4-methoxypiperidin-1-yl}benzamide] | 180 nM | 100 nM | –
15 | CN(C)CC[C@H](CSc1ccccc1)Nc1ccc(S(=O)(=O)NC(=O)c2ccc(N3CCC(=Cc4ccccc4F)CC3)cc2)cc1[N+](=O)[O-] [N-[(4-{[(2R)-4-(dimethylamino)-1-(phenylsulfanyl)butan-2-yl]amino}-3-nitrobenzene)sulfonyl]-4-{4-[(2-fluorophenyl)methylidene]piperidin-1-yl}benzamide] | 250 nM | 350 nM | –
16 | COc1ccccc1C=C1CCN(c2ccc(C(=O)NS(=O)(=O)c3ccc(N[C@H](CCN(C)C)CSc4ccccc4)c([N+](=O)[O-])c3)cc2)CC1 [N-[(4-{[(2R)-4-(dimethylamino)-1-(phenylsulfanyl)butan-2-yl]amino}-3-nitrobenzene)sulfonyl]-4-{4-[(2-methoxyphenyl)methylidene]piperidin-1-yl}benzamide] | 300 nM | 250 nM | –
17 | CN(C)CC[C@H](CSc1ccccc1)Nc1ccc(S(=O)(=O)NC(=O)c2ccc(N3CCC(=Cc4ccccc4-c4ccccc4)CC3)cc2)cc1[N+](=O)[O-] [N-[(4-{[(2R)-4-(dimethylamino)-1-(phenylsulfanyl)butan-2-yl]amino}-3-nitrobenzene)sulfonyl]-4-{4-[(2-phenylphenyl)methylidene]piperidin-1-yl}benzamide] | – | 160 nM and 180 nM | –
18 | CN(C)CC[C@H](CSc1ccccc1)Nc1ccc(S(=O)(=O)NC(=O)c2ccc(N3CCC(=Cc4ccc(F)cc4)CC3)cc2)cc1[N+](=O)[O-] [N-[(4-{[(2R)-4-(dimethylamino)-1-(phenylsulfanyl)butan-2-yl]amino}-3-nitrobenzene)sulfonyl]-4-{4-[(4-fluorophenyl)methylidene]piperidin-1-yl}benzamide] | – | 600 nM | 380 nM
19 | Cc1ccc(S(=O)(=O)N2CCN(c3ccc(C(=O)NS(=O)(=O)c4ccc(N[C@H](CCN(C)C)CSc5ccccc5)c([N+](=O)[O-])c4)cc3)CC2)cc1 [N-[(4-{[(2R)-4-(dimethylamino)-1-(phenylsulfanyl)butan-2-yl]amino}-3-nitrobenzene)sulfonyl]-4-{4-[(4-methylbenzene)sulfonyl]piperazin-1-yl}benzamide] | – | > 20000 nM | > 20000 nM
20 | COc1ccccc1CC1(OC)CCN(c2ccc(C(=O)NS(=O)(=O)c3ccc(N[C@H](CCN(C)C)CSc4ccccc4)c([N+](=O)[O-])c3)cc2)CC1 [N-[(4-{[(2R)-4-(dimethylamino)-1-(phenylsulfanyl)butan-2-yl]amino}-3-nitrobenzene)sulfonyl]-4-{4-methoxy-4-[(2-methoxyphenyl)methyl]piperidin-1-yl}benzamide] | 150 nM | 250 nM | –
21 | COC1(Cc2ccccc2C)CCN(c2ccc(C(=O)NS(=O)(=O)c3ccc(N[C@H](CCN(C)C)CSc4ccccc4)c([N+](=O)[O-])c3)cc2)CC1 [N-[(4-{[(2R)-4-(dimethylamino)-1-(phenylsulfanyl)butan-2-yl]amino}-3-nitrobenzene)sulfonyl]-4-{4-methoxy-4-[(2-methylphenyl)methyl]piperidin-1-yl}benzamide] | 150 nM | 200 nM | –
22 | COC1(Cc2ccccc2-c2ccccc2)CCN(c2ccc(C(=O)NS(=O)(=O)c3ccc(N[C@H](CCN(C)C)CSc4ccccc4)c([N+](=O)[O-])c3)cc2)CC1 [N-[(4-{[(2R)-4-(dimethylamino)-1-(phenylsulfanyl)butan-2-yl]amino}-3-nitrobenzene)sulfonyl]-4-{4-methoxy-4-[(2-phenylphenyl)methyl]piperidin-1-yl}benzamide] | 35 nM | 20 nM | –
23 | COC1(Cc2ccc(-c3ccccc3)cc2)CCN(c2ccc(C(=O)NS(=O)(=O)c3ccc(N[C@H](CCN(C)C)CSc4ccccc4)c([N+](=O)[O-])c3)cc2)CC1 [N-[(4-{[(2R)-4-(dimethylamino)-1-(phenylsulfanyl)butan-2-yl]amino}-3-nitrobenzene)sulfonyl]-4-{4-methoxy-4-[(4-phenylphenyl)methyl]piperidin-1-yl}benzamide] | 600 nM | 1100 nM | –
